In US20240016773A1, “COMPOSITIONS AND METHODS FOR DIAGNOSIS AND TREATMENT OF CONDITIONS RELATED TO AGING” (EPITRACKER, INC., priority 2018, published 2024):

Tests used:
[1] = tested on: HDF3CGF system: dermal fibroblasts (IFNγ, TNFα, IL-1β, EGF, bFGF, PDGF-BB); test: BioMAP Diversity PLUS, HDF3CGF system; format: cell-based, human; conditions: HDF3CGF
Source text: (§1) The Diversity PLUS panel allows test agent characterization in an unbiased way across a broad set of systems modeling various human disease states. These systems are designed to model complex human tissue and disease biology of the vasculature, skin, lung, and inflammatory tissues. Quantitative measurements of 148 biomarker activities across this broad panel, along with comparative analysis of biological activities from known bioactive agents, were used to predict and compare the efficacy and function of each selected compound at four concentrations (740 nm and 2.2, 6.7 and 20 μM).
(§2) BioMAP systems are constructed with one or more primary cell types from healthy human donors, with stimuli (such as cytokines or growth factors) added to capture relevant signaling networks that naturally occur in human tissue or pathological conditions. Vascular biology is modeled in both a Th1 (3C system) and a Th2 (4H system) inflammatory environment, as well as in a Th1 inflammatory state specific to arterial smooth muscle cells (CASM3C system). Additional systems recapitulate aspects of the systemic immune response including monocyte-driven Th1 inflammation (LPS system) or T cell stimulation (SAg system), chronic Th1 inflammation driven by macrophage activation (lMphg system) and the T cell-dependent activation of B cells that occurs in germinal centers (BT system). The BE3C system (Th1) and the BF4T system (Th2) represent airway inflammation of the lung, while the MyoF system models myofibroblast-lung tissue remodeling. Lastly, skin biology is addressed in the KF3CT system modeling Th1 cutaneous inflammation and the HDF3CGF system modeling wound healing.
(§3) Each test agent generates a signature BioMAP profile that is created from the changes in protein biomarker readouts within individual system environments. Biomarker readouts (7-17 per system) are selected for therapeutic and biological relevance, are predictive for disease outcomes or specific drug effects and are validated using agents with known mechanism of action (MoA). Each readout is measured quantitatively by immune-based methods that detect protein (e.g., ELISA) or functional assays that measure proliferation and viability. BioMAP readouts are diverse and include cell surface receptors, cytokines, chemokines, matrix molecules and enzymes. In total, the Diversity PLUS panel contains 148 biomarker readouts that capture biological changes that occur within the physiological context of the particular BioMAP system. Specific BioMAP activities have been correlated to in vivo biology, and multiparameter BioMAP profiles have been used to distinguish compounds based on MoA and target selectivity across diverse physiological systems.
(§4) Activated BioMAP systems were incubated with each compound for 24 to 72 hours. Protein-based biomarkers from activated cell systems were measured and compared with non-treated control systems.

[2] = tested on: BF4T system: bronchial epithelial cells, dermal fibroblasts (IL-4, TNF-α); test: BioMAP Diversity PLUS, BF4T system; format: cell-based, human
Source text: as §1
(§5) BioMAP systems are constructed with one or more primary cell types from healthy human donors, with stimuli (such as cytokines or growth factors) added to capture relevant signaling networks that naturally occur in human tissue or pathological conditions. Vascular biology is modeled in both a Th1 (3C system) and a Th2 (4H system) inflammatory environment, as well as in a Th1 inflammatory state specific to arterial smooth muscle cells (CASM3C system). […]
as §3, with “Specific BioMAP activities have been correlated to in vivo biology, and multiparameter BioMAP profiles have been used to distinguish compounds based on MoA and target selectivity across diverse physiological systems.” left out
as §4

[3] = tested on: twelve different human primary cell systems mimicking various disease states; test: BioMAP Diversity PLUS panel, twelve human primary cell systems (summary by disease); format: cell-based; set-up: key: x: Significantly reduced cell-based biomarkers relevant to specific diseases and conditions
Source text: As a proof of concept, 14 compounds were selected from our compound library based on predicted efficacy in lowering inflammation in dolphins. Pure synthetic forms of these compounds were screened for cell-based activities (relevant to multiple aging-associated diseases and diseases that may impact longevity) using twelve different human primary cell systems mimicking various disease states (TABLE 4—description of primary human cell systems used to screen selected compounds in library).
as §1, §2, §3, §4

[4] = tested on: CASM3C system: coronary artery smooth muscle cells (IL-1β, TNFα, IFNγ); test: BioMAP Diversity PLUS, CASM3C system; format: cell-based, human; conditions: 2.2 μM
Source text: (§6) The Diversity PLUS panel allows test agent characterization in an unbiased way across a broad set of systems modeling various human disease states. These systems are designed to model complex human tissue and disease biology of the vasculature, skin, lung, and inflammatory tissues. Quantitative measurements of 148 biomarker activities across this broad panel, along with comparative analysis of biological activities from known bioactive agents, were used to predict and compare the efficacy and function of each selected compound at four concentrations (740 nm and 2.2, 6.7 and 20 μM). […]
(§7) Each test agent generates a signature BioMAP profile that is created from the changes in protein biomarker readouts within individual system environments. Biomarker readouts (7-17 per system) are selected for therapeutic and biological relevance, are predictive for disease outcomes or specific drug effects and are validated using agents with known mechanism of action (MoA). Each readout is measured quantitatively by immune-based methods that detect protein (e.g., ELISA) or functional assays that measure proliferation and viability. BioMAP readouts are diverse and include cell surface receptors, cytokines, chemokines, matrix molecules and enzymes. […]

[5] = tested on: BT system: peripheral blood mononuclear cells, B cells (α-IgM, TCR ligands); test: BioMAP Diversity PLUS, BT system; format: cell-based, human
Source text: as §1, §2, §3, §4

[6] = tested on: /Mphg system: macrophages, venular endothelial cells (TLR2 ligand); test: BioMAP Diversity PLUS, /Mphg system; format: cell-based, human; conditions: 20.0 μM
Source text: as §6, §7

[7] = tested on: SAg system: venular endothelial cells, peripheral blood mononuclear cells (TCR ligands); test: BioMAP Diversity PLUS, SAg system; format: cell-based, human
Source text: as §1, §2, §3, §4

[8] = tested on: BE3C system: bronchial epithelial cells (IL-1β, IFNγ, TNFα); test: BioMAP Diversity PLUS, BE3C system; format: cell-based, human
Source text: as §1, §5
as §7, with “enzymes. In total, the Diversity PLUS panel contains 148 biomarker readouts that capture biological changes that occur within the physiological context of the particular BioMAP system.” for “enzymes.”
as §4

[9] = tested on: LPS system: venular endothelial cells, peripheral blood mononuclear cells (TLR4 ligand); test: BioMAP Diversity PLUS, LPS system; format: cell-based, human
Source text: as §1, §2
as §7, with “enzymes. In total, the Diversity PLUS panel contains 148 biomarker readouts that capture biological changes that occur within the physiological context of the particular BioMAP system.” for “enzymes.”
as §4

CCCCCCC=CCCCCCCCCC(=O)O [10-heptadecanoate]
Significant log10 reduction vs nontreated controls: Macrophage colony-stimulating factor (M-CSF) ([1]; 6.7 μM): −0.1 log10
Significant log10 reduction vs nontreated controls: Vascular cell adhesion molecule 1 (VCAM-1) ([1]; 6.7 μM): −0.17 log10
Significant log10 reduction vs nontreated controls: Eotaxin 3 (CCL26) ([2]; 2.2 μM): −0.10 log10
Significant log10 reduction vs nontreated controls: Eotaxin 3 (CCL26) ([2]; 6.7 μM): −0.13 log10
Significant log10 reduction vs nontreated controls: Eotaxin 3 (CCL26) ([2]; 20.0 μM): −0.31 log10
Significantly reduced cell-based biomarkers relevant to: Allergy ([3]; Table 6): x
Significantly reduced cell-based biomarkers relevant to: Asthma ([3]; Table 6): x
Significantly reduced cell-based biomarkers relevant to: Autoimmunity ([3]; Table 6): x
Significantly reduced cell-based biomarkers relevant to: COPD ([3]; Table 6): x
Significantly reduced cell-based biomarkers relevant to: Hematological oncology ([3]; Table 6): x
Significantly reduced cell-based biomarkers relevant to: Pulmonary fibrosis ([3]; Table 6): x
Significantly reduced cell-based biomarkers relevant to: SLE ([3]; Table 6): x
Significantly reduced cell-based biomarkers relevant to: T-cell dependent B cell proliferation ([3]; Table 6): x
Significantly reduced cell-based biomarkers relevant to: Th2 type inflammation ([3]; Table 6): x
Significantly reduced cell-based biomarkers relevant to: Chronic inflammation ([3]; Table 7): x
Significantly reduced cell-based biomarkers relevant to: Psoriasis ([3]; Table 7): x
Significantly reduced cell-based biomarkers relevant to: Restenosis ([3]; Table 7): x
Significantly reduced cell-based biomarkers relevant to: Rheumatoid arthritis ([3]; Table 7): x
Significantly reduced cell-based biomarkers relevant to: Thl type inflammation ([3]; Table 7): x
Significantly reduced cell-based biomarkers relevant to: Fibrosis ([3]; Table 8): x
Significantly reduced cell-based biomarkers relevant to: Stromal biology in tumors ([3]; Table 8): x
Significantly reduced cell-based biomarkers relevant to: Vascular inflammation ([3]; Table 8): x
Significant log10 reduction vs nontreated controls: Serum amyloid A [4]: −0.13 log10
Significant log10 reduction vs nontreated controls: Secreted interleukin 2 (IL-2) ([5]; 6.7 μM): −0.11 log10

C=CCCCCCCCCC(=O)O [10-undecanoate]
Significant log10 reduction vs nontreated controls: Secreted interleukin 10 (IL-10) [6]: −0.21 log10
Significant log10 reduction vs nontreated controls: Macrophage colony-stimulating factor (M-CSF) ([1]; 0.7 μM): −0.11 log10
Significant log10 reduction vs nontreated controls: Macrophage colony-stimulating factor (M-CSF) ([1]; 2.2 μM): −0.07 log10
Significant log10 reduction vs nontreated controls: CD40 ([7]; 0.7 μM): −0.07 log10
Significant log10 reduction vs nontreated controls: CD40 ([7]; 2.2 μM): −0.14 log10
Significant log10 reduction vs nontreated controls: CD40 ([7]; 6.7 μM): −0.09 log10
Significant log10 reduction vs nontreated controls: CD40 ([7]; 20.0 μM): −0.11 log10
Significant log10 reduction vs nontreated controls: Tissue plasminogen activator (tPA) ([8]; 2.2 μM): −0.08 log10
Significant log10 reduction vs nontreated controls: Tissue plasminogen activator (tPA) ([8]; 6.7 μM): −0.11 log10
Significant log10 reduction vs nontreated controls: Tissue plasminogen activator (tPA) ([8]; 20.0 μM): −0.12 log10
Significantly reduced cell-based biomarkers relevant to: Allergy ([3]; Table 6): x
Significantly reduced cell-based biomarkers relevant to: Asthma ([3]; Table 6): x
Significantly reduced cell-based biomarkers relevant to: Autoimmunity ([3]; Table 6): x
Significantly reduced cell-based biomarkers relevant to: Hematological oncology ([3]; Table 6): x
Significantly reduced cell-based biomarkers relevant to: SLE ([3]; Table 6): x
Significantly reduced cell-based biomarkers relevant to: T-cell dependent B cell proliferation ([3]; Table 6): x
Significantly reduced cell-based biomarkers relevant to: Atherosclerosis ([3]; Table 7): x
Significantly reduced cell-based biomarkers relevant to: Chronic inflammation ([3]; Table 7): x
Significantly reduced cell-based biomarkers relevant to: Metabolic diseases ([3]; Table 7): x
Significantly reduced cell-based biomarkers relevant to: Organ transplantation ([3]; Table 7): x
Significantly reduced cell-based biomarkers relevant to: Psoriasis ([3]; Table 7): x
Significantly reduced cell-based biomarkers relevant to: Restenosis ([3]; Table 7): x
Significantly reduced cell-based biomarkers relevant to: Rheumatoid arthritis ([3]; Table 7): x
Significantly reduced cell-based biomarkers relevant to: Thl type inflammation ([3]; Table 7): x
Significantly reduced cell-based biomarkers relevant to: Crohn's disease ([3]; Table 8): x
Significantly reduced cell-based biomarkers relevant to: Fibrosis ([3]; Table 8): x
Significantly reduced cell-based biomarkers relevant to: Hematological oncology ([3]; Table 8): x
Significantly reduced cell-based biomarkers relevant to: Pulmonary responses to respiratory infections ([3]; Table 8): x
Significantly reduced cell-based biomarkers relevant to: Sarcoidosis ([3]; Table 8): x
Significantly reduced cell-based biomarkers relevant to: Stromal biology in tumors ([3]; Table 8): x
Significant log10 reduction vs nontreated controls: Secreted prostaglandin E2 (PGE2) ([9]; 0.7 μM): −0.11 log10
Significant log10 reduction vs nontreated controls: Secreted prostaglandin E2 (PGE2) ([9]; 2.2 μM): −0.08 log10
Significant log10 reduction vs nontreated controls: Secreted prostaglandin E2 (PGE2) ([9]; 6.7 μM): −0.20 log10
Significant log10 reduction vs nontreated controls: CD40 ([9]; 20.0 μM): −0.11 log10
Significant log10 reduction vs nontreated controls: Secreted interleukin 17A (IL-17A) ([5]; 2.2 μM): −0.25 log10
Significant log10 reduction vs nontreated controls: Secreted interleukin 17A (IL-17A) ([5]; 20.0 μM): −0.20 log10
Significant log10 reduction vs nontreated controls: Tumor necrosis factor alpha (TNFα) ([5]; 20.0 μM): −0.12 log10
